These results are taken from patent US9777017B2, “Tricyclic fused thiophene derivatives as JAK inhibitors” (Incyte Corporation, priority 2012, dated 2017).

Common to all, as to format: biochemical
The subject of assay [1] is human JAK1. Description: In vitro JAK kinase assay (HTRF, phosphorylation of a biotinylated peptide), JAK1. To be noted: ratio of IC50s, 1 mM ATP. The essentials:
(§1)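 Baculovirus-expressed catalytic domains (JAK1 a.a. 837-1142, JAK2 a.a. 828-1132) phosphorylate 500 nM biotinylated peptide at 1 mM ATP, Tris pH 7.8, 1 h at room temperature. EDTA stop and HTRF detection with Eu-Py20/SA-APC; IC50 values derived.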

Assay [2] addresses human JAK1 (Homo sapiens, UniProt P23458). Described as above. Conditions: 1 mM ATP. An outline of the steps: as §1
For the next assay, the target named is human JAK2 (Homo sapiens (Human), UniProt O60674). Description: In vitro JAK kinase assay (HTRF, phosphorylation of a biotinylated peptide), JAK2. Also on record: key to JAK2 IC50 (nM): +indicates an IC50 of ≦100 nM; ++indicates an IC50 of ≦1000 nM; +++indicates an IC50 of ≦2000 nM; ++++indicates an IC50 of >2000 nM; +++++indicates that the IC50 was greater than the highest concentration tested. Conditions: 1 mM ATP. An outline of the steps: as §1
Chain of human JAK2 (O60674 828-1132): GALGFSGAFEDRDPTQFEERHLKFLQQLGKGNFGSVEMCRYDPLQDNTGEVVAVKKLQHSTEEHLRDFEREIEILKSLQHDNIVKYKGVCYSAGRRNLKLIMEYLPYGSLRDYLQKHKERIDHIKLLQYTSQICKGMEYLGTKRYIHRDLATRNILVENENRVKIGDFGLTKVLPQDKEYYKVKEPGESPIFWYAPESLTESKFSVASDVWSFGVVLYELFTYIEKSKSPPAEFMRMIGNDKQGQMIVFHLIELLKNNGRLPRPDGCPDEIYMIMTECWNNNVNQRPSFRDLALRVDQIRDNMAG
(Time-resolved FRET reads energy transfer from a long-lived donor to a nearby acceptor.)

With `C[C@@H](O)c1nc2cnc3ccsc3c2n1[C@H]1CC[C@H](CNC(=O)N(C)C)CC1` [Example 81, N′-[(trans-4-{2-[(1R)-1-Hydroxyethyl]-1H-imidazo[4,5-d]thieno[3,2-b]pyridin-1-yl}cyclohexyl)methyl]-N,N-dimethylurea], the JAK2/JAK1 in the assay on human JAK1 [1] is more than 10. Also, the IC50 (in general, the concentration at which inhibition is half-maximal) against human JAK1 [2] was not above 100 nM; on human JAK2 it was more than 2000 nM.
On to `CCOC(=O)NC[C@H]1CC[C@H](n2c([C@@H](C)O)nc3cnc4ccsc4c32)CC1` [Example 82, Ethyl [(trans-4-{2-[(1R)-1-hydroxyethyl]-1H-imidazo[4,5-d]thieno[3,2-b]pyridin-1-yl}cyclohexyl)methyl]carbamate], for which the JAK2/JAK1 in the assay with human JAK1 [1] is given as more than 10. Besides, the figures for the IC50 on human JAK1 [2] and at human JAK2 were not above 100 nM and not above 1000 nM, respectively.
With `CCCOC(=O)NC[C@H]1CC[C@H](n2c([C@@H](C)O)nc3cnc4ccsc4c32)CC1` [Example 83, Propyl [(trans-4-{2-[(1R)-1-hydroxyethyl]-1H-imidazo[4,5-d]thieno[3,2-b]pyridin-1-yl}cyclohexyl)methyl]carbamate], in the assay on human JAK1 [1], the JAK2/JAK1 is listed as more than 10. The IC50 against human JAK1 [2] was not above 100 nM; on human JAK2, not above 1000 nM.
For `CC(C)OC(=O)NC[C@H]1CC[C@H](n2c([C@@H](C)O)nc3cnc4ccsc4c32)CC1` [Example 84, Isopropyl [(trans-4-{2-[(1R)-1-hydroxyethyl]-1H-imidazo[4,5-d]thieno[3,2-b]pyridin-1-yl}cyclohexyl)methyl]carbamate] the same measures were more than 10, not above 100 nM and not above 1000 nM.
Consider `C[C@@H](O)c1nc2cnc3ccsc3c2n1[C@H]1CC[C@H](CNC(=O)OC2CCOC2)CC1` (stereo partly drawn) [Example 85, Tetrahydrofuran-3-yl [(trans-4-{2-[(1R)-1-hydroxyethyl]-1H-imidazo[4,5-d]thieno[3,2-b]pyridin-1-yl}cyclohexyl)methyl]carbamate], for which the JAK2/JAK1 in the assay with human JAK1 [1] is more than 10. For the same compound, the IC50 at human JAK1 [2] is not above 100 nM. In addition, the “JAK2 IC50 (nM)” value at human JAK2 is “+++++”.
Regarding `COC(=O)NC[C@H]1CC[C@H](n2c(CC#N)nc3cnc4ccsc4c32)CC1` [Example 86, Methyl ({trans-4-[2-(cyanomethyl)-1H-imidazo[4,5-d]thieno[3,2-b]pyridin-1-yl]cyclohexyl}methyl)carbamate], the JAK2/JAK1 in the assay with human JAK1 [1] is more than 10. In addition, the IC50 against human JAK1 [2] was not above 100 nM; against human JAK2, not above 1000 nM.
As for `CCOC(=O)NC[C@H]1CC[C@H](n2c(CC#N)nc3cnc4ccsc4c32)CC1` [Example 87, Ethyl ({trans-4-[2-(cyanomethyl)-1H-imidazo[4,5-d]thieno[3,2-b]pyridin-1-yl]cyclohexyl}methyl)carbamate], the JAK2/JAK1 in the assay with human JAK1 [1] is given as more than 10. For the same compound, the IC50 on human JAK1 [2] was not above 100 nM; on human JAK2, not above 1000 nM.
Turning to `CC(C)OC(=O)NC[C@H]1CC[C@H](n2c(CC#N)nc3cnc4ccsc4c32)CC1` [Example 88, Isopropyl ({trans-4-[2-(cyanomethyl)-1H-imidazo[4,5-d]thieno[3,2-b]pyridin-1-yl]cyclohexyl}methyl)carbamate], the JAK2/JAK1 in the assay with human JAK1 [1] is recorded as more than 10. The compound also yielded an IC50 on human JAK1 [2] not above 100 nM. Besides, the “JAK2 IC50 (nM)” value on human JAK2 is “+++++”.
As for `CCC(=O)NC[C@H]1CC[C@H](n2c(CC#N)nc3cnc4ccsc4c32)CC1` [Example 89, N-({trans-4-[2-(Cyanomethyl)-1H-imidazo[4,5-d]thieno[3,2-b]pyridin-1-yl]cyclohexyl}methyl)propanamide], in the assay on human JAK1 [1], the JAK2/JAK1 is recorded as more than 10. The IC50 was not above 100 nM on human JAK1 [2] and more than 2000 nM at human JAK2.
In the case of `N#CCc1nc2cnc3ccsc3c2n1[C@H]1CC[C@H](CC#N)CC1` [Example 90, {1-[trans-4-(Cyanomethyl)cyclohexyl]-1H-imidazo[4,5-d]thieno[3,2-b]pyridin-2-yl}acetonitrile], the JAK2/JAK1 in the assay on human JAK1 [1] was more than 10. The IC50 is not above 100 nM at human JAK1 [2] and not above 1000 nM on human JAK2.
In the case of `N#CC[C@H]1CC[C@H](n2c(CO)nc3cnc4ccsc4c32)CO1` [Example 91, {(2R,5S)-5-[2-(Hydroxymethyl)-1H-imidazo[4,5-b]thieno[3,2-b]pyridin-1-yl]tetrahydro-2H-pyran-2-yl}acetonitrile], the JAK2/JAK1 in the assay on human JAK1 [1] is more than 10. Besides, the IC50 is not above 100 nM at human JAK1 [2] and not above 1000 nM at human JAK2.
Take “((1R,2R,4S)-2-Hydroxy-4-{2-[(1R)-1-hydroxyethyl]-1H-imidazo[4,5-d]thieno[3,2-b]pyridin-1-yl}cyclohexyl)acetonitrile and ((1S,2S,4R)-2-hydroxy-4-{2-[(1R)-1-hydroxyethyl]-1H-imidazo[4,5-d]thieno[3,2-b]pyridin-1-yl}cyclohexyl)acetonitrile [36 (first peak)]”: the JAK2/JAK1 with human JAK1 [1] is on record as more than 10. Moreover, the IC50 against human JAK1 [2] was not above 100 nM; at human JAK2, more than 2000 nM.
Turning to “((1R,2R,4S)-2-Hydroxy-4-{2-[(1R)-1-hydroxyethyl]-1H-imidazo[4,5-d]thieno[3,2-b]pyridin-1-yl}cyclohexyl)acetonitrile and ((1S,2S,4R)-2-hydroxy-4-{2-[(1R)-1-hydroxyethyl]-1H-imidazo[4,5-d]thieno[3,2-b]pyridin-1-yl}cyclohexyl)acetonitrile [36 (second peak)]”, the JAK2/JAK1 with human JAK1 [1] is more than 10. In addition, the figures for the IC50 against human JAK1 [2] and at human JAK2 were not above 100 nM and not above 1000 nM, respectively.
With “((1R,2S,4S)-2-Hydroxy-4-{2-[(1R)-1-hydroxyethyl]-1H-imidazo[4,5-d]thieno[3,2-b]pyridin-1-yl}cyclohexyl)acetonitrile trifluoacetate and ((1S,2R,4R)-2-hydroxy-4-{2-[(1R)-1-hydroxyethyl]-1H-imidazo[4,5-d]thieno[3,2-b]pyridin-1-yl}cyclohexyl)acetonitrile trifluoacetate [37 (first peak)]”, the JAK2/JAK1 in the assay with human JAK1 [1] is on record as more than 10. Besides, on human JAK1 [2], the IC50 was not above 1000 nM. In addition, at human JAK2, the “JAK2 IC50 (nM)” value is listed as “+++++”.
On to “((1R,2S,4S)-2-Hydroxy-4-{2-[(1R)-1-hydroxyethyl]-1H-imidazo[4,5-d]thieno[3,2-b]pyridin-1-yl}cyclohexyl)acetonitrile trifluoacetate and ((1S,2R,4R)-2-hydroxy-4-{2-[(1R)-1-hydroxyethyl]-1H-imidazo[4,5-d]thieno[3,2-b]pyridin-1-yl}cyclohexyl)acetonitrile trifluoacetate [37 (second peak)]”, for which the JAK2/JAK1 in the assay on human JAK1 [1] is given as more than 10. Moreover, the results for the IC50 at human JAK1 [2] and on human JAK2 were not above 100 nM and not above 1000 nM, respectively.
For the compound “[(1R,2S,4S)-4-(2-Ethyl-1H-imidazo[4,5-d]thieno[3,2-b]pyridin-1-yl)-2-hydroxycyclohexyl]acetonitrile and [(1S,2R,4R)-4-(2-ethyl-1H-imidazo[4,5-d]thieno[3,2-b]pyridin-1-yl)-2-hydroxycyclohexyl]acetonitrile [40 (first peak)]”, the JAK2/JAK1 with human JAK1 [1] is reported as more than 10. Also, the IC50 against human JAK1 [2] was not above 100 nM; against human JAK2, not above 1000 nM.
For “[(1R,2S,4S)-4-(2-Methyl-1H-imidazo[4,5-d]thieno[3,2-b]pyridin-1-yl)-2-hydroxycyclohexyl]acetonitrile and [(1S,2R,4R)-4-(2-methyl-1H-imidazo[4,5-d]thieno[3,2-b]pyridin-1-yl)-2-hydroxycyclohexyl]acetonitrile [41 (first peak)]”, the JAK2/JAK1 with human JAK1 [1] is on record as more than 10. The IC50 was not above 100 nM at human JAK1 [2] and not above 1000 nM at human JAK2.
